Laboratory results as given in patent publication US20220000853A1, “FORMULATIONS, METHODS, KIT, AND DOSAGE FORMS FOR IMPROVED STABILITY OF AN ACTIVE PHARMACEUTICAL INGREDIENT” (Asana BioSciences, LLC, priority 2018, published 2022).
Structures can show the parent of a compound that is named as a salt.

Columns and labels:
[1] = Stability tests of COMPOUND A formulations at 40° C./75% RH (discoloration, viscosity, physical state); type: physicochemical; details: poloxamer gel formulations, even at higher concentrations of the salt; expected
Source text: Table 5 below provides % w/w for COMPOUND A bromide salt polyethylene glycol ointment.

[2] = Observations in mice after single topical application (motor function, reflexes, weakness, grip strength, application site); type: in vivo
Procedure: 3% COMPOUND A in each of the three vehicle formulations prepared as described in Example 1 above—poloxamer (from Table 4 above); hydroxyethylcellulose (HEC) and polyethylene glycol (Ointment) (50 μl) was applied topically to the skin 6 hours prior to the intradermal injection of chloroquine (CQ) (4 mg/ml, 50 μl). […] Following intradermal CQ injection in the ipsilateral neck area, the number of scratches was counted and cumulative counts were recorded by an automated machine for 40 minutes.
Recovery: The condition of the site of injection was examined and observations of redness, swelling or abrasions due to scratching were made prior to and following scratch counting. Animals were euthanized upon completion of the final observations.
Different test articles comprising varying concentrations of COMPOUND A in hydroxyethyl cellulose (HEC) formulations of the specification (“Gel”) and in dimethylsulfoxide (DMSO) vehicle were tested on mice according to the pruritis model described in Example 2. The same strain of mice was used and the animals were housed in the same manner. Each treatment group consisted of 8 mice, and test articles Gel+COMPOUND A 0.3%, 1%, 3% and 5%, and DMSO+COMPOUND A 3% and 5%, were applied topically to the skin six hours prior to the intradermal injection of chloroquine (CQ) (4 mg/ml, 50 μl). […] Following intradermal CQ injection in the ipsilateral neck area, the number of scratches were counted and cumulative counts were recorded by the automated machine for 40 minutes. Following observation, animals were euthanized. In selected groups (Gel+3% COMPOUND A and Gel+5% COMPOUND A) plasma was harvested at 7 hours following the scratch counting. […] Harvested plasma samples were stored at −20° C. prior to analysis.
The carrier gel alone, with no drug, is referred to as “Gel.” Gel and Gel+COMPOUND A 1%,” “Gel+COMPOUND A 2%” and “Gel+COMPOUND A 3% were applied topically to the skin of groups of 8 mice, each of which were subjected to chloroquine injection (CQ; 4 mg/ml, 50μl) according to the pruritis model described in Example 2 at different time points (3 hours, 6 hours and 15 hours) post application of the test or control articles. The same strain of mice as in Example 2 was used, and the animals were housed in the same manner.

[3] = Tachyphylaxis study: body weight, application site and distress observations; type: in vivo
Procedure: For all three phases, the mice were subjected to the pruritis model as described in Example 2. Upon completion of the scratching assessment mice were placed in their home cage and examined at 24 hours for any adverse skin reactions. Phase 3 animals were euthanized for blood collection following completion of the scratching counts. The condition of the site of injection was examined and observations of redness, swelling or abrasions due to scratching were made following scratch counting and at 24 hours post drug application Animals were euthanized upon completion of the final observations. One mouse died during anesthesia on day 5 after application of 3% drug and one mouse was euthanized because of weight loss. Blood plasma was collected on day 5 following the behavior in the Phase 3 animals. Plasma samples were stored on dry ice until analysis. Data was collected, tabulated and analyzed as described in Example 1, and the results of each phase are discussed below.
This study was performed in three phases, to examine the effect of the successive dosing of poloxamer gel formulations according to the present specification, COMPOUND A (1%) COMPOUND A (3%) and COMPOUND A (3% with gel removal 3 hours after application) on scratching behavior after 5 days of treatment. During Phase 1 of this study, four groups of mice (each n=4) received topical poloxamer gel, COMPOUND A (1%) and COMPOUND A (3%) drug. One group received topical application of COMPOUND A (3%), which was removed after 3 hours. To remove the formulation, a piece of gauze that had been saturated with distilled water was used to gently wipe (not rub) the application site from the rostral end to the caudal end 3 times. The skin was then patted dry with clean gauze. If there were lesions present on the skin, then extra care is taken to avoid irritation or redness.
This treatment was continued for 5 days without any CQ injections. On day 5 all these mice received intradermal CQ 3 hours after the last application of the drug (n=4).

[4] = Single ascending dose first-in-human study: safety and tolerability; type: in vivo; details: healthy subjects
Procedure: The objective of this study was to evaluate the safety, tolerability, pharmacokinetics and effect on tactile stimulation of topical formulations of COMPOUND A in healthy subjects.
(§1) Four single ascending dose cohorts (six active and two placebo subjects per cohort) were evaluated after topical application of a COMPOUND A topical poloxamer gel at an application rate of 82, 164, 328 and 492 μg active moiety/cm^2 on the volar forearm over a 10 cm^2 area. Two concentrations of a COMPOUND A topical poloxamer gel: 1% (0.82% active moiety) and 3% (2.46% active moiety) were evaluated in this study. The 1% and 3% gels used were made as described in Example 1 above. Safety was evaluated via hematology, biochemistry and urinalysis clinical laboratory analyses, electrocardiograms and adverse event collection for 14 days following dose administration. The clinical laboratory analyses included hematocrit; Hgb; MCH; MCHC; MCV; MPV; PLT; RBC; WBC and differentials (neutrophils, lymphocytes, monocytes, eosinophils, and basophils relative and absolute); biochemistry albumin; alkaline phosphatase; ALT; AST; chloride; creatinine (enzymatic); GGT; glucose random; LDH; potassium; sodium; total bilirubin; urea (BUN); uric acid; urinalysis color, clarity, pH, specific gravity, bilirubin, glucose, ketones, leukocytes, nitrite, blood, protein, urobilinogen and microscopic analysis. Local skin tolerability was assessed using a 4-point ordinal scale, and serial plasma samples for PK analysis were collected for up to 7 days post-application. The 4-point ordinal scale used was as follows: 0 (None); 1 (Mild); 2 (Moderate); 3 (Severe) for each of the following: erythema, stinging, itching, burning, desquamation, edema, and pain. Semmes-Weinstein microfilaments were used to assess response to tactile stimulation on the treated area of the forearm; these microfilaments were the same as those commonly used to test patients for diabetic neuropathy.

[5] = Single ascending dose first-in-human study: plasma pharmacokinetics; type: in vivo; details: healthy subjects, topical poloxamer gel, most samples; quantifiable limit
Procedure: as §1, with “The 4-point ordinal scale used was as follows: 0 (None); 1 (Mild); 2 (Moderate); 3 (Severe) for each of the following: erythema, stinging, itching, burning, desquamation, edema, and pain. Semmes-Weinstein microfilaments were used to assess response to tactile stimulation on the treated area of the forearm; these microfilaments were the same as those commonly used to test patients for diabetic neuropathy.” left out

[6] = Single ascending dose first-in-human study: tactile stimulation with Semmes-Weinstein microfilaments; type: in vivo; details: healthy subjects, treated area of the forearm, normal skin
Procedure: as §1, with “The 4-point ordinal scale used was as follows: 0 (None); 1 (Mild); 2 (Moderate); 3 (Severe) for each of the following: erythema, stinging, itching, burning, desquamation, edema, and pain. Semmes-Weinstein microfilaments were used to assess response to tactile stimulation on the treated area of the forearm; these microfilaments were the same as those commonly used to test patients for diabetic neuropathy.” left out

sodium channel = details: through capsaicin-activated TRPV1 channels; cited from earlier work
[7] = following single topical application of the drug

Question: With Cc1ccccc1N(CC[C@H]1CCCC[N+]1(C)C)C1Cc2ccccc2C1 [COMPOUND A methanesulfonate salt, (R)-2-(2-((2,3-dihydro-1H-inden-2-yl)(o-tolyl)amino)ethyl)-1,1-dimethylpiperidin-1-ium] as the compound, how does the Discoloration [1] read?
Answer: little to no discoloration

Question: Which “Scratching at the site of application prior to injection of CQ” value ([2]; 3% in HEC gel, poloxamer gel or ointment) does the source give for Cc1ccccc1N(CC[C@H]1CCCC[N+]1(C)C)C1Cc2ccccc2C1 [COMPOUND A, (R)-2-(2-((2,3-dihydro-1H-inden-2-yl)(o-tolyl)amino)ethyl)-1,1-dimethylpiperidin-1-ium] here?
Answer: did not display scratching

Question: What about the Weakness ([2]; following single topical application) of the same compound?
Answer: No weakness was observed

Question: And the “Motor function (measured by placing and stepping)” value [2, 7]?
Answer: normal

Question: And the “Pinna and corneal reflexes” value [2, 7]?
Answer: normal

Question: What about the Recovery ([3]; Phase 1, observed until day 9) of the same compound?
Answer: they all recovered their weight and from their redness

Question: And the Body weight ([3]; Phase 1, poloxamer gel 1% and 3%, 5 days)?
Answer: slight drop in the weight

Question: What about the Lethargy or distress ([3]; Phase 1, poloxamer gel, 5 days) of the same compound?
Answer: No signs of lethargy or distress were observed

Question: And the “Skin at the site of application” value ([3]; Phase 1, poloxamer gel, 5 days (scaly by day 3; redness Day 4 and 5, no gel removal))?
Answer: scaly texture at the site of application

Question: And the Body weight ([3]; Phase 2, poloxamer gel 0.1% and 0.3%, 5 days)?
Answer: No weight loss was observed

Question: And the “Local tolerability of the gels (4-point ordinal scale)” value ([4]; topical poloxamer gel 1% and 3%)?
Answer: Excellent local tolerability

Question: And the “Tolerability of all doses” value ([4]; topical poloxamer gel 1% and 3%, single dose 82, 164, 328 and 492 μg active moiety/cm^2, volar forearm 10 cm^2)?
Answer: well-tolerated

Question: And the “Dose-limiting toxicities or treatment-related adverse events” value ([4]; up to the highest administered dose (492 μg active moiety/cm^2))?
Answer: No dose-limiting toxicities or treatment-related adverse events were reported

Question: What about the Plasma concentration [5] of the same compound?
Answer: < 0.01 ng/mL

Question: What about the Tactile stimulation assessments [6] of the same compound?
Answer: No trends were noted

Question: Which Sodium channel activity (sodium channel) does the source give for CC[N+](CC)(CC)CC(=O)Nc1c(C)cccc1C [QX-314] here?
Answer: permeates through capsaicin-activated TRPV1 channels and blocks sodium channel activity
